{"source": "ChEMBL document CHEMBL5247653", "about": "“Discovery of Clinical Candidate ACT-777991, a Potent CXCR3 Antagonist for Antigen-Driven and Inflammatory Pathologies” (J Med Chem, 2023)", "key": {"[1]": {"assay": "Unbound clearance in Wistar rat plasma at 0.5 mg/kg, iv", "type": "ADME, organism-based", "conditions": "in vivo"}, "[2]": {"assay": "In vivo inhibition of hERG in po dosed dog assessed as increase in QTc interval", "type": "toxicity, organism-based, Canis lupus familiaris"}, "[3]": {"assay": "Apparent permeability across apical to basolateral side in dog MDCK-II cells", "type": "ADME, cell-based, Canis lupus familiaris"}, "[4]": {"biological_target": "T1, C-X-C chemokine receptor type 3 (Homo sapiens, UniProt P49682)", "T1 sequence (P49682 whole entry)": "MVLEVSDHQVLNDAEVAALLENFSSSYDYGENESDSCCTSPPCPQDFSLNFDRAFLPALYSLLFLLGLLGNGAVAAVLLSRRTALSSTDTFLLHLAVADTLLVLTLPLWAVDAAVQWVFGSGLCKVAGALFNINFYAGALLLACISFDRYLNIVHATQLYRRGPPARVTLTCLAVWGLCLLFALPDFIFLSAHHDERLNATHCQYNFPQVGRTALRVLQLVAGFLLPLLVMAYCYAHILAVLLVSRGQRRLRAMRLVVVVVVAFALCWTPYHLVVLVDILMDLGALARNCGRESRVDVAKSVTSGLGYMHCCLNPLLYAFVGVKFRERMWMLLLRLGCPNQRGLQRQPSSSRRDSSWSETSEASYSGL", "assay": "Antagonist activity at CXCR3 in human whole blood assessed as receptor internalization incubated for 30 mins in presence of CXCL10 by flow cytometric analysis", "type": "tissue-based"}, "[5]": {"assay": "Metabolic stability in human hepatocyte assessed as M2 metabolite formation at 1 uM and measured upto 15 mins in presence of NADPH regenerating system by LC-MS/MS analysis", "type": "ADME, cell-based", "conditions": "hepatocytes, 0.25 h"}, "[6]": {"assay": "Half life in Cynomolgus monkey at 1.0 mg/kg,iv or 1.25 mg/kg, po", "type": "ADME, organism-based, Macaca fascicularis", "conditions": "in vivo"}, "[7]": {"biological_target": "T1, C-X-C chemokine receptor type 3", "assay": "Binding affinity to human CXCR3 expressed in CHO-K1 cell membrane assessed as dissociation constant using tritium-labeled ligand by […] assay", "type": "cell membranes"}, "[8]": {"biological_target": "C-X-C chemokine receptor type 4 (Homo sapiens) (UniProt P61073)", "sequence (P61073 whole entry)": "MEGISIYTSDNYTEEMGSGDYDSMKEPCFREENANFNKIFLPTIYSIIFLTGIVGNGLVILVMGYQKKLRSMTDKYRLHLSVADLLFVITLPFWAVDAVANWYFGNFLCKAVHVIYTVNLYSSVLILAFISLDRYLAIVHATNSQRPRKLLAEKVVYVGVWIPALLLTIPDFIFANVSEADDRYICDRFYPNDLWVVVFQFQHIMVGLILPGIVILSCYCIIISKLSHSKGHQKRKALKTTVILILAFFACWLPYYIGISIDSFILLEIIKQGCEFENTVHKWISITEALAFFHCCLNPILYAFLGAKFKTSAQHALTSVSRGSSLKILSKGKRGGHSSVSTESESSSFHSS", "assay": "Binding affinity to CXCR4 (unknown origin) at 10 uM by radioligand binding assay"}, "[9]": {"biological_target": "C-X-C chemokine receptor type 3 (Canis lupus familiaris, UniProt Q5KSK8)", "sequence (Q5KSK8 whole entry)": "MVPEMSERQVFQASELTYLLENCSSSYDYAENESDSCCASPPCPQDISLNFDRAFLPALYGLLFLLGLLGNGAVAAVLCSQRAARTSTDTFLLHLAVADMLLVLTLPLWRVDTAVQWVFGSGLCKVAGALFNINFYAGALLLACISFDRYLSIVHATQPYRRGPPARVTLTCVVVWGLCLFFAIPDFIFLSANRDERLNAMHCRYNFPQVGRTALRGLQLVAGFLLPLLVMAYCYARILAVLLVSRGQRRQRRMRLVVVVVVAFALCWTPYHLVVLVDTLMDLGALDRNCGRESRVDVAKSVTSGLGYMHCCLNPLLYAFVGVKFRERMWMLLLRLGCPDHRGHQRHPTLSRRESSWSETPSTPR", "assay": "Antagonist activity at dog CXCR3 expressed in CHO-K1 cells assessed as reduction in CXCL10 induced calcium flux by FLIPR method", "type": "cell-based"}, "[10]": {"tested_on": "NIH3T3", "assay": "Phototoxicity in BALB/c mouse 3T3 cells upto 100 ug/ml in presence of irradiation", "type": "toxicity, cell-based", "conditions": "dose < 100 µg/ml"}, "[11]": {"assay": "Metabolic stability in human hepatocyte assessed as M3 metabolite formation at 1 uM and measured upto 15 mins in presence of NADPH regenerating system by LC-MS/MS analysis", "type": "ADME, cell-based", "conditions": "hepatocytes, 0.25 h"}, "[12]": {"assay": "Unbound clearance in Beagle dog plasma at 1 mg/kg, iv", "type": "ADME, organism-based, Canis lupus familiaris", "conditions": "in vivo"}, "[13]": {"biological_target": "T1, C-X-C chemokine receptor type 3", "assay": "Antagonist activity at human CXCR3 expressed in CHO-K1 cells assessed as reduction in CXCL10 induced calcium flux by FLIPR method", "type": "cell-based"}, "[14]": {"assay": "Cmax in Beagle dog at 2.5 mg/kg,iv or 2.5 mg/kg, po", "type": "ADME, organism-based, Canis lupus familiaris", "parameters": "dose 2.5 mg/kg, route iv", "conditions": "in vivo"}, "[15]": {"biological_target": "Solute carrier organic anion transporter family member 1B3 (Homo sapiens, UniProt Q9NPD5)", "sequence (Q9NPD5 whole entry)": "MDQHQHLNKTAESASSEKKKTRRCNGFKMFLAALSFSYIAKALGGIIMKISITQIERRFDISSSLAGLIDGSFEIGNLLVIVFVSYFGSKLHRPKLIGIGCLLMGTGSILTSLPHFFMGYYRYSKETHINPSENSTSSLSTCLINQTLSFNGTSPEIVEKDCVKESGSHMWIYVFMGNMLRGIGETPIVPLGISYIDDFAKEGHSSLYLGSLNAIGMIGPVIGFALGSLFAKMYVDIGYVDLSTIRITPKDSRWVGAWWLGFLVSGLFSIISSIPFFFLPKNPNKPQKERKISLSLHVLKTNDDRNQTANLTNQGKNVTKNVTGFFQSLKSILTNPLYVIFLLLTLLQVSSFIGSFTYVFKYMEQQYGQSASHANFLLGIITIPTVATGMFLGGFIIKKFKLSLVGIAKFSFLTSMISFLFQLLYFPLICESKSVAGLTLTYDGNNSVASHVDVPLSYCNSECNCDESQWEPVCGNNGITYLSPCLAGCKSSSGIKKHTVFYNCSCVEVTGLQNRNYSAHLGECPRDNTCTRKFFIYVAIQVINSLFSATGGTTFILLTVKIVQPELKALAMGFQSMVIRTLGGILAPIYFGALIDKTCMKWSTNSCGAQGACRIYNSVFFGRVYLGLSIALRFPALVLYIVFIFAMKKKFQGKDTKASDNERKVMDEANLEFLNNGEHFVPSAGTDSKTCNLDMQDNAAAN", "assay": "Inhibition of human OATP1B3", "type": "ADME"}, "[16]": {"assay": "Metabolic stability in rat liver microsomes assessed as M3 metabolite formation at 1 uM and measured upto 15 mins in presence of NADPH regenerating system by LC-MS/MS analysis", "type": "ADME, Microsome", "conditions": "0.25 h"}, "[17]": {"assay": "Protein binding in dog plasma assessed as fraction unbound at 1 uM incubated for 6 hrs by rapid equilibrium dialysis based LC-MS/MS analysis", "type": "ADME, cell-free, Canis lupus familiaris"}, "[18]": {"assay": "Cmax in Cynomolgus monkey at 1.0 mg/kg,iv or 1.25 mg/kg, po", "type": "ADME, organism-based, Macaca fascicularis", "parameters": "dose 1 mg/kg, route iv", "conditions": "in vivo"}, "[19]": {"biological_target": "Solute carrier organic anion transporter family member 1B1 (Homo sapiens, UniProt Q9Y6L6)", "sequence (Q9Y6L6 whole entry)": "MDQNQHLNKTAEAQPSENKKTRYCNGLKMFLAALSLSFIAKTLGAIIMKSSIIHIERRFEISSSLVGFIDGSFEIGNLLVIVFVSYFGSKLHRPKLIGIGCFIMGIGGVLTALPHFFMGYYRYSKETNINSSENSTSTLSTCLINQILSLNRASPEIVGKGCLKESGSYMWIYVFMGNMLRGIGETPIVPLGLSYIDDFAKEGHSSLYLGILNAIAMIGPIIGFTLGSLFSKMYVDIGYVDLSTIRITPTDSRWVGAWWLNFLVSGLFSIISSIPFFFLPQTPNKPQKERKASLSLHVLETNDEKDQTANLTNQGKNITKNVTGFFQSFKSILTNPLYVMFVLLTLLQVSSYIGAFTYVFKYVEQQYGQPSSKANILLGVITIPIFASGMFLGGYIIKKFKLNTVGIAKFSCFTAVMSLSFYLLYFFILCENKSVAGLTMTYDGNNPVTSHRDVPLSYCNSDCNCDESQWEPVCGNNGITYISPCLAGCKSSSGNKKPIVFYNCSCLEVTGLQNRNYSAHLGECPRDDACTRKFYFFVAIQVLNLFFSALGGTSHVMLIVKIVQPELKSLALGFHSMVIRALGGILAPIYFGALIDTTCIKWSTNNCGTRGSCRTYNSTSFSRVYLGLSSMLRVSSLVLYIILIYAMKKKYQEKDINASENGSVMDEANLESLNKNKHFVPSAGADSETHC", "assay": "Inhibition of human OATP1B1", "type": "ADME"}, "[20]": {"assay": "Oral bioavailability in Cynomolgus monkey at 1.25 mg/kg", "type": "ADME, organism-based, Macaca fascicularis", "conditions": "in vivo"}, "[21]": {"assay": "Genotoxicity in Salmonella typhimurium TA98 at 5000 ug", "type": "toxicity", "conditions": "salmonella enterica subsp. enterica serovar typhimurium; dose 5000 µg"}, "[22]": {"assay": "Metabolic stability in dog liver microsomes assessed as intrinsic clearance at 1 uM and measured upto 15 mins in presence of NADPH regenerating system by LC-MS/MS analysis", "type": "ADME, Canis lupus familiaris, Microsome", "conditions": "read-out: CLH"}, "[23]": {"tested_on": "Mus musculus", "assay": "Antiinflammatory activity against LPS-induced DBA/1 mouse model assessed as reduction in CXCR3+ CD8+ T cells infiltration into BAL at 0.006 to 2 microg/g, po bid preincubated for 3 days followed by LPS stimulation for 30 mins and measured after 3 days by flow cytometry", "type": "functional, organism-based", "conditions": "T-cell, dose 0.006-2 µg/g, time 6.0 day"}, "[24]": {"assay": "Protein binding in human plasma assessed as fraction unbound at 1 uM incubated for 6 hrs by rapid equilibrium dialysis based LC-MS/MS analysis", "type": "ADME, cell-free"}, "[25]": {"biological_target": "CYP2D6 (Homo sapiens, UniProt P10635)", "sequence (P10635 whole entry)": "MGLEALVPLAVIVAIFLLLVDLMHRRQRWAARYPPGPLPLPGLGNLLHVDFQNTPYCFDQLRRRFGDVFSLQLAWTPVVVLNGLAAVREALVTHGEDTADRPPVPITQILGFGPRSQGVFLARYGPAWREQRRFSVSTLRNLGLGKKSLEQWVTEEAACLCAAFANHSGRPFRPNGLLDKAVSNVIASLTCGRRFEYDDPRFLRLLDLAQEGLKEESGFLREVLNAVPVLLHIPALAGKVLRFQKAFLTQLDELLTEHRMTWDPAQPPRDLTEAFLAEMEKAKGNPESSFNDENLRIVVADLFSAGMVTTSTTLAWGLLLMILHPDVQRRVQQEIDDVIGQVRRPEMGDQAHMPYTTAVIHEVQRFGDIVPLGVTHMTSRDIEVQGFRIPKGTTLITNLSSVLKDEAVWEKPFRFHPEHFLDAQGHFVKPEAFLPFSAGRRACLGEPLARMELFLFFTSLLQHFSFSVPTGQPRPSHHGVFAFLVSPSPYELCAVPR", "assay": "[…] recombinant human CYP2D6 mediated drug metabolism in human liver microsomes assessed as intrinsic clearance at 1 uM incubated for 45 mins in presence of NADPH regenerating system by LC-MS/MS analysis", "type": "ADME, Microsome", "conditions": "recombinant human CYP2D6, read-out: CLH"}}, "note": "The source made the active and inactive calls. The calls are words filed in the database; no cut-off is given here."}
{"smiles": "Cc1ncn(CC(=O)N2CCN(c3sc(C(F)(F)F)nc3-c3cnc(C(F)(F)F)nc3)C[C@H]2CCO)n1", "values": [{"measurement": "CL free", "setting": "[1]", "value": 156, "unit": "mL/min/kg"}, {"measurement": "inhibition (INH)", "setting": "[2]", "value": "Toxic"}, {"measurement": "Papp A→B", "setting": "[3]", "value": 1.5, "unit": "×10⁻⁶ cm/s"}, {"measurement": "IC50", "setting": "[4]", "value": 56, "unit": "nM"}, {"measurement": "Stability", "setting": "[5]", "value": "Unstable"}, {"measurement": "half-life", "setting": "[6]", "value": 4, "unit": "h"}, {"measurement": "Kd", "setting": "[7]", "value": 4.6, "unit": "nM"}, {"measurement": "Activity", "setting": "[8]", "value": "inactive"}, {"measurement": "IC50", "setting": "[9]", "value": 2.8, "unit": "nM"}, {"measurement": "Activity", "setting": "[10]", "value": "Non-Toxic"}, {"measurement": "Stability", "setting": "[11]", "value": "Unstable"}, {"measurement": "CL free", "setting": "[12]", "value": 15, "unit": "mL/min/kg"}, {"measurement": "IC50", "setting": "[13]", "value": 3.2, "unit": "nM"}, {"measurement": "Cmax", "setting": "[14]", "value": 910, "unit": "ng/mL"}, {"measurement": "inhibition (INH)", "setting": "[15]", "value": "Not Active"}, {"measurement": "Stability", "setting": "[16]", "value": "Unstable"}, {"measurement": "fraction unbound at 6 h, 1 µM", "setting": "[17]", "value": 0.34}, {"measurement": "Cmax", "setting": "[18]", "value": 735, "unit": "ng/mL"}, {"measurement": "inhibition (INH)", "setting": "[19]", "value": "Not Active"}, {"measurement": "bioavailability", "setting": "[20]", "value": 92, "unit": "%"}, {"measurement": "Activity", "setting": "[21]", "value": "Non-Toxic"}, {"measurement": "microsomal CLint at 1 µM", "setting": "[22]", "value": "< 10", "unit": "µL/min/mg"}, {"measurement": "Activity", "setting": "[23]", "value": "Dose-Dependent Effect"}, {"measurement": "fraction unbound at 6 h, 1 µM", "setting": "[24]", "value": 0.23}, {"measurement": "microsomal CLint at 1 µM", "setting": "[25]", "value": "< 0.04", "unit": "µL/min/mg"}]}
